Data reported in PubChem BioAssay (NCI).
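Compound exposure: 48 hours, 5 concentrations, 96-well plates. At the GI50, growth is halved. TGI denotes the concentration required for complete inhibition of growth.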

Experiments:
Experiment in all cases: inhibition of tumour cell growth, NCI panel, 48 h
[1] = tested on: MCF7 breast
[2] = tested on: OVCAR-3 ovarian
[3] = tested on: A549 NSCLC
[4] = tested on: DU-145 prostate
[5] = tested on: SF-268 CNS
[6] = tested on: NCI-H23 lung
[7] = tested on: HT29 colon
[8] = tested on: 786-0 renal
[9] = tested on: OVCAR-4 ovarian
[10] = tested on: NCI-H522 lung

## O=C(Nc1ccc(Br)cc1F)c1cc(Br)ccc1O
[1]
  GI50: 0.906 µM
  TGI: 8.96 µM
[2]
  GI50: 0.535 µM
  TGI: 8.62 µM
[3]
  GI50: 2.11 µM
  TGI: 16.4 µM
[4]
  GI50: 1.47 µM
  TGI: 23.1 µM
[5]
  GI50: 0.716 µM
  TGI: 11.6 µM
[6]
  GI50: 0.396 µM
  TGI: 3.62 µM
[7]
  GI50: 3.08 µM
  TGI: 9.71 µM
[8]
  GI50: 1.66 µM
  TGI: 6.26 µM
[9]
  GI50: 0.604 µM
  TGI: 25.3 µM
[10]
  GI50: 0.344 µM
  TGI: 5.38 µM

## O=C(CN1CCN(c2ccc(Cl)cc2)CC1)N1CCN(c2nnc(-c3ccccc3)c(-c3ccccc3)n2)CC1
[1]
  GI50: 3.38 µM
  TGI: > 100 µM
[2]
  GI50: 8.38 µM
  TGI: > 100 µM
[3]
  GI50: 28.6 µM
  TGI: > 100 µM
[4]
  GI50: > 100 µM
  TGI: > 100 µM
[5]
  GI50: > 100 µM
  TGI: > 100 µM
[6]
  GI50: 4 µM
  TGI: > 100 µM
[7]
  GI50: 2.43 µM
  TGI: 19.5 µM
[8]
  GI50: 5.64 µM
  TGI: > 100 µM
[9]
  GI50: 1.75 µM
  TGI: > 100 µM
[10]
  GI50: 16.2 µM
  TGI: > 100 µM

## Cc1ccccc1/C=C1\CN(C(=O)OC(C)(C)C)C/C(=C\c2ccccc2C)C1=O
[1]
  GI50: 2.21 µM
  TGI: > 100 µM
[2]
  GI50: 1.85 µM
  TGI: 3.65 µM
[3]
  GI50: 2.82 µM
  TGI: 9.17 µM
[4]
  GI50: 2.37 µM
  TGI: 5.52 µM
[5]
  GI50: 2.95 µM
  TGI: 10.6 µM
[6]
  GI50: 2.2 µM
  TGI: 4.99 µM
[7]
  GI50: 2.86 µM
  TGI: 7.61 µM
[8]
  GI50: 1.84 µM
  TGI: 3.52 µM
[9]
  GI50: 2.6 µM
  TGI: 14.1 µM
[10]
  GI50: 2.2 µM
  TGI: 6.63 µM

## CN1CCCN(C(c2ccccc2)c2ccc(Br)cc2)CC1 (stereo not given)
[1]
  GI50: 2.63 µM
  TGI: 10 µM
[2]
  GI50: 2.83 µM
  TGI: 10.2 µM
[3]
  GI50: 10.9 µM
  TGI: 25.6 µM
[4]
  GI50: 10.5 µM
  TGI: 22.3 µM
[5]
  GI50: 2.76 µM
  TGI: 8.97 µM
[6]
  GI50: 10.3 µM
  TGI: 22.1 µM
[7]
  GI50: 2.92 µM
  TGI: 13.1 µM
[8]
  GI50: 3.94 µM
  TGI: 14 µM
[9]
  GI50: 7.63 µM
  TGI: 20.5 µM
[10]
  GI50: 3.62 µM
  TGI: 13.9 µM

## Cc1ccc(S(=O)(=O)n2cc(-c3nnnn3-c3ccc(Cl)cc3)c(=O)c3ccccc32)cc1
[1]
  GI50: 80.6 µM
  TGI: > 100 µM
[2]
  GI50: > 100 µM
  TGI: > 100 µM
[3]
  GI50: 76.3 µM
  TGI: > 100 µM
[4]
  GI50: > 100 µM
  TGI: > 100 µM
[5]
  GI50: > 100 µM
  TGI: > 100 µM
[6]
  GI50: > 100 µM
  TGI: > 100 µM
[7]
  GI50: 57.7 µM
  TGI: > 100 µM
[8]
  GI50: > 100 µM
  TGI: > 100 µM
[9]
  GI50: 53.7 µM
  TGI: > 100 µM
[10]
  GI50: 41.3 µM
  TGI: > 100 µM

## O=C(/C=C/c1cccnc1)c1ccccc1O
[1]
  GI50: 32.3 µM
  TGI: > 100 µM
[2]
  GI50: 20.5 µM
  TGI: 55.2 µM
[3]
  GI50: 37.1 µM
  TGI: > 100 µM
[4]
  GI50: 16 µM
  TGI: 31.6 µM
[5]
  GI50: 26.9 µM
  TGI: 97.6 µM
[6]
  GI50: 16.9 µM
  TGI: 36 µM
[7]
  GI50: 21.4 µM
  TGI: 58.7 µM
[8]
  GI50: 17.2 µM
  TGI: 31.8 µM
[9]
  GI50: 29.5 µM
  TGI: > 100 µM
[10]
  GI50: 16.6 µM
  TGI: 48.7 µM

## COc1ccc(/C=C/C(=O)c2ccc(Nc3ccnc4cc(Cl)ccc34)cc2)cc1
[1]
  GI50: 2.85 µM
  TGI: > 42.3 µM
[2]
  GI50: > 100 µM
  TGI: > 100 µM
[3]
  GI50: > 100 µM
  TGI: > 100 µM
[4]
  GI50: > 100 µM
  TGI: > 100 µM
[5]
  GI50: > 100 µM
  TGI: > 100 µM
[6]
  GI50: > 100 µM
  TGI: > 100 µM
[7]
  GI50: 4.2 µM
  TGI: > 100 µM
[8]
  GI50: > 100 µM
  TGI: > 100 µM
[9]
  GI50: > 100 µM
  TGI: > 100 µM
[10]
  GI50: > 100 µM
  TGI: > 100 µM

## CC[C@]12CCCN3CC[C@]4(C(=C(C(=O)OC)C1)Nc1ccccc14)[C@@H]32
[1]
  GI50: 16 µM
  TGI: 33.8 µM
[2]
  GI50: 17 µM
  TGI: 31.1 µM
[3]
  GI50: 16.3 µM
  TGI: 42.6 µM
[4]
  GI50: 16.8 µM
  TGI: 35.2 µM
[5]
  GI50: 18 µM
  TGI: 37.8 µM
[6]
  GI50: 17.1 µM
  TGI: 43.8 µM
[7]
  GI50: 14.1 µM
  TGI: 33.9 µM
[8]
  GI50: 13.9 µM
  TGI: 29.1 µM
[9]
  GI50: 15.4 µM
  TGI: 54.8 µM
[10]
  GI50: 13 µM
  TGI: 30.3 µM

## COc1cc(NC(N)=NCCC(C)(C)c2ccc(C(F)(F)F)cc2)ncc1C#N
[1]
  GI50: 1.45 µM
  TGI: 2.98 µM
[2]
  GI50: 1.79 µM
  TGI: 3.5 µM
[3]
  GI50: 1.61 µM
  TGI: 3.06 µM
[4]
  GI50: 1.93 µM
  TGI: 3.51 µM
[5]
  GI50: 1.97 µM
  TGI: 4.27 µM
[6]
  GI50: 1.53 µM
  TGI: 3.15 µM
[7]
  GI50: 1.62 µM
  TGI: 3.14 µM
[8]
  GI50: 1.71 µM
  TGI: 3.14 µM
[9]
  GI50: 1.82 µM
  TGI: 4.12 µM
[10]
  GI50: 1.44 µM
  TGI: 2.97 µM

## COc1ccc(Cn2c(Br)c3c(c2-c2cc(OC)c(OC)c(OC)c2)CCc2sc(NC(C)=O)nc2-3)cc1
[1]
  GI50: 3.32 µM
  TGI: > 100 µM
[2]
  GI50: 3.63 µM
  TGI: > 100 µM
[3]
  GI50: 3.92 µM
  TGI: > 100 µM
[4]
  GI50: 4.44 µM
  TGI: > 100 µM
[5]
  GI50: 6.15 µM
  TGI: > 100 µM
[6]
  GI50: 8.6 µM
  TGI: > 100 µM
[7]
  GI50: 3.41 µM
  TGI: 11.1 µM
[8]
  GI50: 4.2 µM
  TGI: > 100 µM
[9]
  GI50: 3.49 µM
  TGI: > 100 µM
[10]
  GI50: 2.17 µM
  TGI: 9.22 µM
